Residue numbers refer to the chain shown, from its start. “Also recorded” adds a separate entry of the source. Square brackets hold non-standard residues; d marks the D form. Ends that are not written are not given here. pS = N[C@@H](COP(=O)(O)O)C(=O)O
Columns and labels:
Parameters in all cases: species or system murine
Abl SH2 domain Arg36Lys = target: T1, Abl SH2 domain Arg36Lys (Mus musculus, UniProt P00520, R152K); experiment: HSQC NMR titration ligand-binding assay, Arg36Lys mutant; conditions: 135 mM KCl
T1 sequence (P00520 120-220 R152K): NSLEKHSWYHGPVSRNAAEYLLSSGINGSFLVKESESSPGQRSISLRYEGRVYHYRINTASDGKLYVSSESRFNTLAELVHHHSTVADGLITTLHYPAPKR

Abl SH2 domain Arg45Gln = target: T2, Abl SH2 domain Arg45Gln (Mus musculus, UniProt P00520, R161Q); experiment: HSQC NMR titration ligand-binding assay, Arg45Gln mutant; conditions: read-out: Affinity in high salt, 135 mM KCl
T2 sequence (P00520 120-220 R161Q): T1 sequence (P00520 120-220 R152K) with K33R, R42Q

Abl SH2 domain Arg59Gln = target: T3, Abl SH2 domain Arg59Gln (Mus musculus, UniProt P00520, R175Q); experiment: HSQC NMR titration ligand-binding assay, Arg59Gln mutant; conditions: for Affinity in high salt: 135 mM KCl; for Kd: read-out: Affinity in high salt, 135 mM KCl
T3 sequence (P00520 120-220 R175Q): T1 sequence (P00520 120-220 R152K) with K33R, R56Q

[1] = target: T4, Abl SH2 domain (wild type) (Mus musculus, UniProt P00520); experiment: HSQC NMR titration ligand-binding assay, wild type Abl SH2 domain; conditions: for Affinity in high salt: 135 mM KCl, HSQC titration, ± standard error
T4 sequence (P00520 120-220): T1 sequence (P00520 120-220 R152K) with K33R

Compound	Affinity in high salt (Abl SH2 domain Arg36Lys)	Kd (Abl SH2 domain Arg45Gln)	Affinity in high salt (Abl SH2 domain Arg59Gln)	Kd (Abl SH2 domain Arg59Gln)	Affinity in high salt [1]	also measured
CCCC(=O)OC[C@H](COP(=O)(O)O[C@@H]1[C@H](O)[C@H](O)[C@@H](OP(=O)(O)O)[C@H](OP(=O)(O)O)[C@H]1O)OC(=O)CCC [diC4-PtdIns(4,5)P2, dibutanoyl (C4) PtdIns(4,5)P2]	Not detectable	900 ± 60 µM	almost completely disrupted	> 10 mM		Affinity in high salt (Abl SH2 domain Arg36Lys; listed as PtdIns(4,5)P2): abolished
CCCCCCCC(=O)OC[C@H](COP(=O)(O)O[C@@H]1[C@H](O)[C@H](O)[C@@H](OP(=O)(O)O)[C@H](OP(=O)(O)O)[C@H]1O)OC(=O)CCCCCCC [diC8-PtdIns(4,5)P2, dioctanoyl (C8) PtdIns(4,5)P2]						stronger affinity of the C8 over C4 form of PtdIns(4,5)P2 ([1]; ratio of affinities): 1.6 fold
N[C@@H](Cc1ccc(OP(=O)(O)O)cc1)C(=O)O [pTyr, phosphotyrosine]	abolished; also recorded: Not detectable	390 ± 13 µM	reduced to millimolar levels	2.5 ± 0.2 mM		
GQSSRV[pS]PSPTTY [BCR pSer354 peptide]					Not detectable	
phosphatidic acid [Phosphatidicacid]					very weak	
phosphatidylserine					Not detectable	Affinity in high salt ([1]; listed as PtdSer): very weak

Source: publication PMC2610419 (Chemical biology & drug design, 2006)
